# Data as given in patent US12404295B2, “(Hetero)aryl-methyl-thio-beta-D-galactopyranoside derivatives” (Idorsia Pharmaceuticals Ltd, priority 2019, dated 2025).
# Assays:
# human Gal-3 (hGal-3) = human Gal-3 (hGal-3) (Homo sapiens (Human), UniProt P17931); test: competitive binding assay: biotinylated hGal-3 binding to microplate-adsorbed asialofetuin (ASF); details: Gal-3 inhibition; binding of biotinylated hGal-3 to ASF; mean values; read-out: IC50
# Method in brief: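 Peroxidase activity developed with ABTS measures the biotinylated hGal-3 remaining on the asialofetuin-coated surface after competition with test compounds. Incubation ran 3 h at 4 °C, followed by 1 h with streptavidin-peroxidase at 80 ng/mL.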
# human Gal-1 (hGal-1) = human Gal-1 (hGal-1) (Homo sapiens (Human), UniProt P09382); test: competitive binding assay: biotinylated hGal-1 binding to microplate-adsorbed asialofetuin (ASF); details: Table 15; read-out: IC50 (Galectin-1 inhibition)
# human Gal-1 (hGal-1), sequence (P09382 whole entry): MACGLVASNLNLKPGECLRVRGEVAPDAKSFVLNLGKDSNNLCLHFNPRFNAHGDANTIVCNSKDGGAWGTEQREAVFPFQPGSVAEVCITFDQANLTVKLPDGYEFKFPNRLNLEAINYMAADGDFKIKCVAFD
# Experimental: Inhibition data of the epimers R and S of selected Examples are also listed.
# Evaluation of Compound Inhibitory Activity (IC50)
# The inhibitory activity of compounds is determined in competitive binding assays. This spectrophotometric assay measures the binding of biotinylated human Gal-3 (hGal-3) or human Gal-1 (hGal-1), respectively, to a microplate-adsorbed glycoprotein, asialofetuin (ASF) (Proc Natl Acad Sci USA. 2013 Mar. 26; 110(13):5052-7.).
# Briefly, compounds are serially diluted in DMSO (working dilutions). ASF-coated 384 well plates are supplemented with 22.8 μL/well of biotinylated hGal-3 or hGal-1 in assay buffer (i.e. 300-1000 ng/mL biotinylated hGal-3 or hGal-1) to which 1.2 μL of compound working dilutions are added and mixed.
# Plates are incubated for 3 hours at 4° C., then washed with cold assay buffer (3×50 uL), incubated for 1 hour with 25 μL/well of a streptavidin-peroxidase solution (diluted in assay buffer to 80 ng/mL) at 4° C., followed by further washing steps with assay buffer (3×50 uL). Finally, 25 μL/well of ABTS substrate is added.
# The calculated IC50 values may fluctuate depending on the daily assay performance. Fluctuations of this kind are known to those skilled in the art. IC50 values from several measurements are given as mean values.
# human Gal-3 (hGal-3), sequence (P17931 whole entry): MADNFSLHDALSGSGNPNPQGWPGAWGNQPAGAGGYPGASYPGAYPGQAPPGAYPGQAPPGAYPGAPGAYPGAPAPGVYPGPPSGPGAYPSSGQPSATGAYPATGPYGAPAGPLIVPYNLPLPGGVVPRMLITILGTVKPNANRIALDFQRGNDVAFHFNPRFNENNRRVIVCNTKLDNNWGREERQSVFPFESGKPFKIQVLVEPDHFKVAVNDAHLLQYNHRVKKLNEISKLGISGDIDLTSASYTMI
Compound,IC50 (human Gal-3 (hGal-3)),IC50 (human Gal-1 (hGal-1))
"CC(C)(O)[C@H](S[C@@H]1O[C@H](CO)[C@H](O)[C@H](n2cc(-c3cc(F)c(F)c(F)c3)nn2)[C@H]1O)c1ccccc1Cl [Example 2.31.111R., (2S,3R,4S,5R,6R)-2-(((R)-1-(2-Chlorophenyl)-2-hydroxy-2-methylpropyl)thio)-6-(hydroxymethyl)-4-(4-(3,4,5-trifluorophenyl)-1H-1,2,3-triazol-1-yl)tetrahydro-2H-pyran-3,5-diol]",0.38 µM,3.19 µM
"CC(C)(O)[C@@H](S[C@@H]1O[C@H](CO)[C@H](O)[C@H](n2cc(-c3cc(F)c(F)c(F)c3)nn2)[C@H]1O)c1ccccc1Cl [Example 2.31.111S., (2S,3R,4S,5R,6R)-2-(((S)-1-(2-Chlorophenyl)-2-hydroxy-2-methylpropyl)thio)-6-(hydroxymethyl)-4-(4-(3,4,5-trifluorophenyl)-1H-1,2,3-triazol-1-yl)tetrahydro-2H-pyran-3,5-diol]",4.3 µM,30.9 µM
"CC(C)(O)C(S[C@@H]1O[C@H](CO)[C@H](O)[C@H](n2cc(-c3cc(F)c(F)c(F)c3)nn2)[C@H]1O)c1ccccc1C(F)(F)F (stereo partly drawn) [Example 2.31.112., (2S,3R,4S,5R,6R)-2-((2-Hydroxy-2-methyl-1-(2-(trifluoromethyl)phenyl)propyl)thio)-6-(hydroxymethyl)-4-(4-(3,4,5-trifluorophenyl)-1H-1,2,3-triazol-1-yl)tetrahydro-2H-pyran-3,5-diol]",0.25 µM,5.23 µM
"CC(C)(O)[C@H](S[C@@H]1O[C@H](CO)[C@H](O)[C@H](n2cc(-c3cc(F)c(F)c(F)c3)nn2)[C@H]1O)c1ccccc1C(F)(F)F [Example 2.31.112R., (2S,3R,4S,5R,6R)-2-(((R)-2-Hydroxy-2-methyl-1-(2-(trifluoromethyl)phenyl)propyl)thio)-6-(hydroxymethyl)-4-(4-(3,4,5-trifluorophenyl)-1H-1,2,3-triazol-1-yl)tetrahydro-2H-pyran-3,5-diol]",0.29 µM,2.61 µM
"CC(C)(O)[C@@H](S[C@@H]1O[C@H](CO)[C@H](O)[C@H](n2cc(-c3cc(F)c(F)c(F)c3)nn2)[C@H]1O)c1ccccc1C(F)(F)F [Example 2.31.112S., (2S,3R,4S,5R,6R)-2-(((S)-2-Hydroxy-2-methyl-1-(2-(trifluoromethyl)phenyl)propyl)thio)-6-(hydroxymethyl)-4-(4-(3,4,5-trifluorophenyl)-1H-1,2,3-triazol-1-yl)tetrahydro-2H-pyran-3,5-diol]",7.07 µM,26.4 µM
"CC(C)(O)C(S[C@@H]1O[C@H](CO)[C@H](O)[C@H](n2cc(-c3cc(F)c(F)c(F)c3)nn2)[C@H]1O)c1cccc(Cl)c1Cl (stereo partly drawn) [Example 2.31.113., (2S,3R,4S,5R,6R)-2-((1-(2,3-Dichlorophenyl)-2-hydroxy-2-methylpropyl)thio)-6-(hydroxymethyl)-4-(4-(3,4,5-trifluorophenyl)-1H-1,2,3-triazol-1-yl)tetrahydro-2H-pyran-3,5-diol]",0.46 µM,3.75 µM
"Cc1c(F)cccc1C(S[C@@H]1O[C@H](CO)[C@H](O)[C@H](n2cc(-c3cc(F)c(F)c(F)c3)nn2)[C@H]1O)C(C)(C)O (stereo partly drawn) [Example 2.31.114., (2S,3R,4S,5R,6R)-2-((1-(3-Fluoro-2-methylphenyl)-2-hydroxy-2-methylpropyl)thio)-6-(hydroxymethyl)-4-(4-(3,4,5-trifluorophenyl)-1H-1,2,3-triazol-1-yl)tetrahydro-2H-pyran-3,5-diol]",0.13 µM,2.27 µM
"Cc1c(F)cccc1[C@H](S[C@@H]1O[C@H](CO)[C@H](O)[C@H](n2cc(-c3cc(F)c(F)c(F)c3)nn2)[C@H]1O)C(C)(C)O [Example 2.31.114S., (2S,3R,4S,5R,6R)-2-(((S)-1-(3-Fluoro-2-methylphenyl)-2-hydroxy-2-methylpropyl)thio)-6-(hydroxymethyl)-4-(4-(3,4,5-trifluorophenyl)-1H-1,2,3-triazol-1-yl)tetrahydro-2H-pyran-3,5-diol]",5.4 µM,40.9 µM
"CC(C)(O)C(S[C@@H]1O[C@H](CO)[C@H](O)[C@H](n2cc(-c3cc(F)c(F)c(F)c3)nn2)[C@H]1O)c1cccc2ccccc12 (stereo partly drawn) [Example 2.31.115., (2S,3R,4S,5R,6R)-2-((2-Hydroxy-2-methyl-1-(naphthalen-1-yl)propyl)thio)-6-(hydroxymethyl)-4-(4-(3,4,5-trifluorophenyl)-1H-1,2,3-triazol-1-yl)tetrahydro-2H-pyran-3,5-diol]",0.18 µM,1.39 µM
"CC(C)(O)[C@H](S[C@@H]1O[C@H](CO)[C@H](O)[C@H](n2cc(-c3cc(F)c(F)c(F)c3)nn2)[C@H]1O)c1cccc2ccccc12 [Example 2.31.115R., (2S,3R,4S,5R,6R)-2-(((R)-2-Hydroxy-2-methyl-1-(naphthalen-1-yl)propyl)thio)-6-(hydroxymethyl)-4-(4-(3,4,5-trifluorophenyl)-1H-1,2,3-triazol-1-yl)tetrahydro-2H-pyran-3,5-diol]",0.17 µM,0.58 µM
"CC(C)(O)[C@@H](S[C@@H]1O[C@H](CO)[C@H](O)[C@H](n2cc(-c3cc(F)c(F)c(F)c3)nn2)[C@H]1O)c1cccc2ccccc12 [Example 2.31.115S., (2S,3R,4S,5R,6R)-2-(((S)-2-Hydroxy-2-methyl-1-(naphthalen-1-yl)propyl)thio)-6-(hydroxymethyl)-4-(4-(3,4,5-trifluorophenyl)-1H-1,2,3-triazol-1-yl)tetrahydro-2H-pyran-3,5-diol]",10.3 µM,47.9 µM

# Second part, the molecule after the results:
IC50 (human Gal-3 (hGal-3)),IC50 (human Gal-1 (hGal-1)),Compound
0.3 µM,3.78 µM,"Cc1ncccc1C(S[C@@H]1O[C@H](CO)[C@H](O)[C@H](n2cc(-c3cc(F)c(F)c(F)c3)nn2)[C@H]1O)C(C)(C)O (stereo partly drawn) [Example 2.31.116., (2S,3R,4S,5R,6R)-2-((2-Hydroxy-2-methyl-1-(2-methylpyridin-3-yl)propyl)thio)-6-(hydroxymethyl)-4-(4-(3,4,5-trifluorophenyl)-1H-1,2,3-triazol-1-yl)tetrahydro-2H-pyran-3,5-diol]"
0.53 µM,4.95 µM,"Cc1ccncc1C(S[C@@H]1O[C@H](CO)[C@H](O)[C@H](n2cc(-c3cc(F)c(F)c(F)c3)nn2)[C@H]1O)C(C)(C)O (stereo partly drawn) [Example 2.31.117., (2S,3R,4S,5R,6R)-2-((2-Hydroxy-2-methyl-1-(4-methylpyridin-3-yl)propyl)thio)-6-(hydroxymethyl)-4-(4-(3,4,5-trifluorophenyl)-1H-1,2,3-triazol-1-yl)tetrahydro-2H-pyran-3,5-diol]"
0.21 µM,0.64 µM,"CC(C)(O)[C@H](S[C@@H]1O[C@H](CO)[C@H](O)[C@H](n2cc(-c3cc(F)c(F)c(F)c3)nn2)[C@H]1O)c1cccnc1C(F)(F)F [Example 2.31.118R., (2S,3R,4S,5R,6R)-2-(((R)-2-hydroxy-2-methyl-1-(2-(trifluoromethyl)pyridin-3-yl)propyl)thio)-6-(hydroxymethyl)-4-(4-(3,4,5-trifluorophenyl)-1H-1,2,3-triazol-1-yl)tetrahydro-2H-pyran-3,5-diol]"
6.21 µM,8.2 µM,"CC(C)(O)[C@@H](S[C@@H]1O[C@H](CO)[C@H](O)[C@H](n2cc(-c3cc(F)c(F)c(F)c3)nn2)[C@H]1O)c1cccnc1C(F)(F)F [Example 2.31.118S., (2S,3R,4S,5R,6R)-2-(((S)-2-Hydroxy-2-methyl-1-(2-(trifluoromethyl)pyridin-3-yl)propyl)thio)-6-(hydroxymethyl)-4-(4-(3,4,5-trifluorophenyl)-1H-1,2,3-triazol-1-yl)tetrahydro-2H-pyran-3,5-diol]"
0.23 µM,1.75 µM,"Cc1nc(C)c(C(S[C@@H]2O[C@H](CO)[C@H](O)[C@H](n3cc(-c4cc(F)c(F)c(F)c4)nn3)[C@H]2O)C(C)(C)O)nc1C (stereo partly drawn) [Example 2.31.119., (2S,3R,4S,5R,6R)-2-((2-Hydroxy-2-methyl-1-(3,5,6-trimethylpyrazin-2-yl)propyl)thio)-6-(hydroxymethyl)-4-(4-(3,4,5-trifluorophenyl)-1H-1,2,3-triazol-1-yl)tetrahydro-2H-pyran-3,5-diol]"
0.27 µM,1.15 µM,"Cc1nc(C)c([C@@H](S[C@@H]2O[C@H](CO)[C@H](O)[C@H](n3cc(-c4cc(F)c(F)c(F)c4)nn3)[C@H]2O)C(C)(C)O)nc1C [Example 2.31.119R., (2S,3R,4S,5R,6R)-2-(((R)-2-Hydroxy-2-methyl-1-(3,5,6-trimethylpyrazin-2-yl)propyl)thio)-6-(hydroxymethyl)-4-(4-(3,4,5-trifluorophenyl)-1H-1,2,3-triazol-1-yl)tetrahydro-2H-pyran-3,5-diol]"
2.63 µM,18.4 µM,"Cc1nc(C)c([C@H](S[C@@H]2O[C@H](CO)[C@H](O)[C@H](n3cc(-c4cc(F)c(F)c(F)c4)nn3)[C@H]2O)C(C)(C)O)nc1C [Example 2.31.119S., (2S,3R,4S,5R,6R)-2-(((S)-2-Hydroxy-2-methyl-1-(3,5,6-trimethylpyrazin-2-yl)propyl)thio)-6-(hydroxymethyl)-4-(4-(3,4,5-trifluorophenyl)-1H-1,2,3-triazol-1-yl)tetrahydro-2H-pyran-3,5-diol]"
